Measurements: ChEMBL document CHEMBL3860046, “Increasing metabolic stability via the deuterium kinetic isotope effect: An example from a proline-amide-urea aminothiazole series of phosphatidylinositol-3 kinase alpha inhibitors” (Bioorg Med Chem Lett, 2016)
Activity calls are given as the source filed them. The calls are words filed in the database; no cut-off is given here.

Columns and labels:
[1] = Drug level in human hepatocytes treated with 1 uM (2S)-N1-[4-methyl-5-[2-[2,2,2-trideuterio-1,1-bis(trideuteriomethyl)ethyl]pyrimidin-4-yl]thiazol-2-yl]pyrrolidine-1,2-dicarboxamide measured after 40 to 60 mins by capillary-HPLC/MS analysis; assay type: ADME, cell-based, Hepatocyte
[2] = Drug level in rat hepatocytes treated with 1 uM (2S)-N1-[4-methyl-5-[2-[2,2,2-trideuterio-1,1-bis(trideuteriomethyl)ethyl]pyrimidin-4-yl]thiazol-2-yl]pyrrolidine-1,2-dicarboxamide measured after 40 to 60 mins by capillary-HPLC/MS analysis; assay type: ADME, cell-based, Hepatocyte
[3] = Clearance in Sprague-Dawley rat at 1 mg/kg, iv administered in cassette mode measured up to 48 hrs; assay type: ADME, organism-based; settings: in vivo
[4] = Intrinsic clearance in mouse liver microsomes at 1 uM after 5 to 30 mins in presence of NADPH by LC-MS/MS analysis; assay type: ADME; settings: read-out: CLH
[5] = Dose normalized AUC in Sprague-Dawley rat at 3 mg/kg, po administered in cassette mode measured up to 48 hrs; assay type: ADME, organism-based; settings: in vivo
[6] = Dose normalized Cmax in Sprague-Dawley rat at 1 mg/kg, iv or 3 mg/kg, po administered in cassette mode; assay type: ADME, organism-based; settings: in vivo
[7] = Stability in Sprague-Dawley rat blood assessed as compound remaining at 1 mg/kg, iv administered in cassette mode measured after 0.5 hrs by capillary-HPLC/MS analysis; assay type: ADME, organism-based; settings: whole blood, read-out: Stability
[8] = Antitumor activity in Rat1 cells expressing myr-p110alpha xenografted in Harlan nude mouse assessed as tumor regression at 25 mg/kg, po qd administered for 8 days measured post last dose; assay type: functional, Rattus norvegicus
[9] = Tmax in Sprague-Dawley rat at 1 mg/kg, iv or 3 mg/kg, po administered in cassette mode; assay type: ADME, organism-based; settings: in vivo
[10] = Oral bioavailability in Sprague-Dawley rat at 3 mg/kg administered in cassette mode measured up to 48 hrs; assay type: ADME, organism-based; settings: in vivo
[11] = Intrinsic clearance in rat liver microsomes at 1 uM after 5 to 30 mins in presence of NADPH by LC-MS/MS analysis; assay type: ADME; settings: read-out: CLH
[12] = Terminal half life in Sprague-Dawley rat at 3 mg/kg, po administered in cassette mode; assay type: ADME, organism-based; settings: in vivo, read-out: beta t1/2 (converted)
[13] = Stability in human hepatocytes assessed as compound remaining at 1 uM measured after 40 to 60 mins by capillary-HPLC/MS analysis; assay type: ADME, cell-based, Hepatocyte; settings: read-out: Stability
[14] = Volume of distribution at steady state in Sprague-Dawley rat at 1 mg/kg, iv or 3 mg/kg, po administered in cassette mode measured up to 48 hrs; assay type: ADME, organism-based; settings: in vivo, read-out: Vdss
[15] = Intrinsic clearance in human liver microsomes at 1 uM after 5 to 30 mins in presence of NADPH by LC-MS/MS analysis; assay type: ADME; settings: read-out: CLH
[16] = Stability in rat hepatocytes assessed as compound remaining at 1 uM measured after 40 to 60 mins by capillary-HPLC/MS analysis; assay type: ADME, cell-based, Hepatocyte; settings: read-out: Stability
[17] = Antitumor activity in Rat1 cells expressing myr-p110alpha xenografted in Harlan nude mouse assessed as tumor regression at 50 mg/kg, po qd administered for 8 days measured post last dose; assay type: functional, Rattus norvegicus
[18] = Dose normalized AUC in Sprague-Dawley rat at 1 mg/kg, iv administered in cassette mode measured up to 48 hrs; assay type: ADME, organism-based; settings: in vivo
[19] = Stability in Sprague-Dawley rat blood assessed as compound remaining at 3 mg/kg, po administered in cassette mode measured after 0.5 hrs by capillary-HPLC/MS analysis; assay type: ADME, organism-based; settings: whole blood, read-out: Stability
[20] = Stability in Sprague-Dawley rat blood assessed as compound remaining at 1 mg/kg, iv administered in cassette mode measured after 1 hr by capillary-HPLC/MS analysis; assay type: ADME, organism-based; settings: whole blood, read-out: Stability
[21] = Stability in Sprague-Dawley rat blood assessed as compound remaining at 3 mg/kg, po administered in cassette mode measured after 1 hr by capillary-HPLC/MS analysis; assay type: ADME, organism-based; settings: whole blood, read-out: Stability
[22] = Drug level in human liver microsomes treated with (S)-N1-(5-(2-tert-butylpyrimidin-4-yl)-4-methylthiazol-2-yl)pyrrolidine-1,2-dicarboxamide at 5 uM measured after 1 hr in presence of alamethicin,uridine 5'-diphospho-glucuronic acid,glutathione,NADPH by capillary-HPLC/MS analysis; assay type: ADME
[23] = (§1) Drug level in rat liver microsomes treated with (S)-N1-(5-(2-tert-butylpyrimidin-4-yl)-4-methylthiazol-2-yl)pyrrolidine-1,2-dicarboxamide at 5 uM measured after 1 hr in presence of alamethicin,uridine 5'-diphospho-glucuronic acid,glutathione,NADPH by capillary-HPLC/MS analysis; assay type: ADME
[24] = AUC (0 to 24 hrs) in Harlan nude mouse plasma xenografted with Rat1 cells expressing myr-p110alpha at 100 mg/kg, po qd administered for 8 days measured post last dose; assay type: ADME, organism-based; set-up: dose 100 mg/kg, time < 24 hr, route oral
[25] = Antitumor activity in Rat1 cells expressing myr-p110alpha xenografted in Harlan nude mouse assessed as tumor regression at 100 mg/kg, po qd administered for 8 days measured post last dose; assay type: functional, Rattus norvegicus
Mus musculus [26] = species on record: Mus musculus; settings: Harlan, Rat1, 50 mg/kg
[27] = AUC (0 to 24 hrs) in Harlan nude mouse plasma xenografted with Rat1 cells expressing myr-p110alpha at 150 mg/kg, po qd administered for 8 days measured post last dose; assay type: ADME, organism-based; set-up: time < 24 hr, dose 150 mg/kg, route oral
[28] = Stability in human liver microsomes assessed as compound remaining at 5 uM measured after 1 hr in presence of alamethicin,uridine 5'-diphospho-glucuronic acid,glutathione,NADPH by capillary-HPLC/MS analysis (reference value: 96.3 %); assay type: ADME; settings: read-out: Stability
Mus musculus [29] = species on record: Mus musculus; settings: Harlan, Rat1, 50 mg/kg; remark: listed apart in the source
[30] = Stability in rat liver microsomes assessed as compound remaining at 5 uM measured immediately after compound addition in presence of alamethicin,uridine 5'-diphospho-glucuronic acid,glutathione,NADPH by capillary-HPLC/MS analysis (reference value: 96.3 %); assay type: ADME; settings: read-out: Stability
[31] = Stability in rat liver microsomes assessed as compound remaining at 5 uM measured after 1 hr in presence of alamethicin,uridine 5'-diphospho-glucuronic acid,glutathione,NADPH by capillary-HPLC/MS analysis (reference value: 96.3 %); assay type: ADME; settings: read-out: Stability
[32] = AUC (0 to 24 hrs) in Harlan nude mouse plasma xenografted with Rat1 cells expressing myr-p110alpha at 50 mg/kg, po qd administered for 8 days measured post last dose; assay type: ADME, organism-based; set-up: time < 24 hr, dose 50 mg/kg, route oral
[33] = Antitumor activity in Rat1 cells expressing myr-p110alpha xenografted in Harlan nude mouse assessed as tumor regression at 150 mg/kg, po qd administered for 8 days measured post last dose; assay type: functional, Rattus norvegicus
[34] = as §1, with “measured immediately” for “measured”, “compound addition” for “1 hr”; assay type: ADME

For `[2H]C([2H])([2H])C(c1nccc(-c2sc(NC(=O)N3CCC[C@H]3C(N)=O)nc2C)n1)(C([2H])([2H])[2H])C([2H])([2H])O`, the Drug metabolism [1] was “Metabolite_Detected” and the Drug metabolism [2] was “Metabolite_Detected”.

`[2H]C([2H])([2H])C(c1nccc(-c2sc(NC(=O)N3CCC[C@H]3C(N)=O)nc2C)n1)(C([2H])([2H])[2H])C([2H])([2H])[2H]` showed a clearance [3] of 16 mL/min/kg, a microsomal CLint at 1 µM [4] of 19 µL/min/mg and an AUC/dose [5] of 1490 nM·kg·h/mg. The Cmax/dose [6] was 270 nM, the remaining at 0.5 h [7] was 95% and the Activity [8] was 24%. For the same compound, the Tmax [9] was 18 min, the bioavailability [10] was 54% and the microsomal CLint at 1 µM [11] was 22 µL/min/mg. For the same compound, the half-life [12] was 90 min, the remaining at 1 µM [13] was 96.2% and the Vd [14] was 1.4 L/kg. It also gave a microsomal CLint at 1 µM [15] of 19 µL/min/mg, a remaining at 1 µM [16] of 94.5% and an Activity [17] of 63%. It also gave an AUC/dose [18] of 2750 nM·kg·h/mg, a remaining at 0.5 h [19] of 91% and a remaining at 1 h [20] of 95%. For the same compound, the remaining at 1 h [21] was 91%.

With `Cc1nc(NC(=O)N2CCC[C@H]2C(N)=O)sc1-c1ccnc(C(C)(C)CO)n1` the Drug metabolism [22] was “Metabolite_Detected” and the Drug metabolism [23] was “Metabolite_Detected”.

For `Cc1nc(NC(=O)N2CCC[C@H]2C(N)=O)sc1-c1ccnc(C(C)(C)C)n1`, the microsomal CLint at 1 µM [4] was 35 µL/min/mg, the AUC/dose [5] was 527 nM·kg·h/mg and the Cmax/dose [6] was 180 nM. It also gave a remaining at 0.5 h [7] of 90%, an AUC at 24 h [24] of 134 µM·h and an Activity [25] of 10%. For the same compound, the Tmax [9] was 18 min, the bioavailability [10] was 26% and the microsomal CLint at 1 µM [11] was 55 µL/min/mg. The inhibition (Mus musculus [26]) was “Active”, the AUC at 24 h [27] was 383 µM·h and the half-life [12] was 72 min. For the same compound, the remaining at 1 h, 5 µM [28] was 90.8%, the inhibition (Mus musculus [29]) was “Active” and the Vd [14] was 1.2 L/kg. It also gave a microsomal CLint at 1 µM [15] of 32 µL/min/mg, a remaining at 0 min, 5 µM [30] of 98.9% and a remaining at 1 h, 5 µM [31] of 87.2%. The AUC at 24 h [32] was 65 µM·h, the AUC/dose [18] was 2010 nM·kg·h/mg and the remaining at 0.5 h [19] was 74%. It also gave a remaining at 1 h [20] of 86%, a remaining at 1 h [21] of 73% and an Activity [33] of 51%.

In the case of `[2H]C([2H])([2H])C(c1nccc(-c2sc(NC(=O)N3CCC[C@H]3C(=O)O)nc2C)n1)(C([2H])([2H])[2H])C([2H])([2H])[2H]`, the Drug metabolism [1] is reported as “Metabolite_Detected” and the Drug metabolism [2] is reported as “Metabolite_Detected”.

With `Cc1nc(NC(=O)N2CCC[C@H]2C(=O)O)sc1-c1ccnc(C(C)(C)C)n1` the Drug metabolism [22] was “Metabolite_Detected”, the Drug metabolism [23] was “Metabolite_Detected” and the Drug metabolism [34] was “Metabolite_Detected”.
